# According to patent US9422248B2 (University of Iowa Research Foundation, priority 2012, dated 2016):
# “Also recorded” adds a separate entry of the source. Like-named read-outs stand apart in the source and are kept apart here.
# Tests used:
# seizures = assay: anticonvulsant properties (model not stated); conditions: in vivo
# 6 Hz (32 mA) model [1] = conditions: cited from earlier work; for anticonvulsant activity in the 6 Hz model: mouse 6 Hz (32 mA), previously shown; for ED50: 6 Hz model, earlier work
# [2] = test system: maximal electroshock (MES) model; conditions: mouse; previously demonstrated; cited from earlier work
# [3] = test system: scMET model (pentylenetetrazole, Metrazol); conditions: mouse; previously demonstrated; cited from earlier work
# [4] = test system: scMET model (pentylenetetrazole, Metrazol); assay: scMET test (subcutaneous Metrazol); format: in vivo, mouse; conditions: for responders at 30 mg/kg / responders at 100 mg/kg / responders at 300 mg/kg: Mus musculus, scMET, read-out: number of animals protected/number of animals tested; for responders at 30 mg/kg: 30 mg/kg ip; for responders at 100 mg/kg: 100 mg/kg ip; for responders at 300 mg/kg: 300 mg/kg ip
# From the text: (§1) All compounds (FIG. 1) were screened in three whole mouse models: the maximal electroshock model (MES), the scMET test (pentylenetetrazole, Metrazol), and the 6 Hz psychomotor seizure model of partial epilepsy (32 mA). Adult male CF No 1 albino mice (26-30 g) were used for the 6 Hz test and 18-25 g mice were used in the MES and scMet tests. The animals are housed, fed, and handled in a manner consistent with the recommendations in the National Council Publication, “Guide for the Care and Use of Laboratory Animals”. The animal studies were performed by the NINDS Anticonvulsant Screening Program under IACUC number 09-12014. All compounds were administered ip in polyethylene glycol, 30%.
# (§2) The MES model, which generates generalized tonic-clonic seizures, involved pretreating mice with experimental compound, and administering 60 Hz of alternating current (50 mA) for 2 s via corneal electrodes. Prior to current administration, the animal's corneas were treated topically with 1% tetracaine. Animals are considered protected if the hindlimb tonic extensor component is absent. The scMET test was done by pretreating mice with experimental compound and administering 85 mg/kg Metrazol into the loose folds of the skin in the midline of the neck. Eighty-five mg/kg Metrazol is the dose that causes seizures in 97% (CD97) of control animals.
# rotorod test = assay: Toxicity by the rotorod test; format: in vivo
# From the text: All compounds (FIG. 1) were screened in three whole mouse models: the maximal electroshock model (MES), the scMET test (pentylenetetrazole, Metrazol), and the 6 Hz psychomotor seizure model of partial epilepsy (32 mA). Adult male CF No 1 albino mice (26-30 g) were used for the 6 Hz test and 18-25 g mice were used in the MES and scMet tests. The animals are housed, fed, and handled in a manner consistent with the recommendations in the National Council Publication, “Guide for the Care and Use of Laboratory Animals”. […] All compounds were administered ip in polyethylene glycol, 30%.
# The 6 Hz test (also known as the minimal clonic seizure, or psychomotor test) involved delivering a corneal stimulus of 32 mA for 3 s. […] Seizures consist of a minimal clonic phase followed by stereotyped automatistic behaviors. Animals not showing such behaviors were considered protected. Toxicity was determined by the rotorod test. For this test, the animal is placed on a rotorod at 6 rpm following dosing. The animal is considered toxic if it falls off the rotorod three times in a 1 min period. The ED50, TD50 and confidence intervals were determined by probit analysis.
# [5] = test system: maximal electroshock (MES) model; assay: maximal electroshock (MES) model; format: in vivo, mouse; conditions: for responders at 30 mg/kg / responders at 100 mg/kg / responders at 300 mg/kg: Mus musculus, MES; for responders at 30 mg/kg: 30 mg/kg ip; for responders at 30 mg/kg / responders at 300 mg/kg: read-out: number of animals protected/number of animals tested; for responders at 100 mg/kg: 100 mg/kg ip, read-out: number of animals protected/number of animals tested (converted); for responders at 300 mg/kg: 300 mg/kg ip
# From the text: as §1, §2
# 6 Hz (32 mA) model [6] = assay: 6 Hz (32 mA) psychomotor seizure model of partial epilepsy; format: in vivo, mouse; conditions: mouse, in vivo
# From the text: as §1
# The 6 Hz test (also known as the minimal clonic seizure, or psychomotor test) involved delivering a corneal stimulus of 32 mA for 3 s. This current elicits psychomotor seizures in 97% of untreated animals. Seizures consist of a minimal clonic phase followed by stereotyped automatistic behaviors. Animals not showing such behaviors were considered protected. Toxicity was determined by the rotorod test. For this test, the animal is placed on a rotorod at 6 rpm following dosing. The animal is considered toxic if it falls off the rotorod three times in a 1 min period. The ED50, TD50 and confidence intervals were determined by probit analysis.
# [7] = analgesic properties (test not described)
smiles,measurement,setting,value
"CC(C)c1nc(C(O)C(F)(F)F)ccc1O (stereo not drawn) [Compound 20, 2-isopropyl-6-(2,2,2-trifluoro-1-hydroxyethyl)pyridin-3-ol]",anticonvulsant properties,seizures,anticonvulsant properties
Cc1cc(C(O)C(F)(F)F)cc(C)c1O (stereo not drawn) [DMPF],anticonvulsant activity in the 6 Hz model,6 Hz (32 mA) model [1],lack of activity
CC(C)c1cc(C(O)C(F)(F)F)cc(C(C)C)c1O (stereo not drawn) [MB003],protective effects in the MES model,[2],little to no protective effects
same,ED50,6 Hz (32 mA) model [1],38.6 mg/kg
same,anticonvulsant activity in the 6 Hz model,6 Hz (32 mA) model [1],good anticonvulsant activity; also recorded: protective
same,protective effects in the scMET model,[3],little to no protective effects
CCC(C)c1cc(C(O)C(F)(F)F)cc(C(C)CC)c1O (stereo not drawn) [MB050],ED50,6 Hz (32 mA) model [1],73 mg/kg
same,anticonvulsant activity in the 6 Hz model,6 Hz (32 mA) model [1],good anticonvulsant activity
"CCCc1cc(C(O)C(F)(F)F)ccc1O (stereo not drawn) [RM1208, 2-n-Propyl-4-(2,2,2-trifluoro-1-hydroxy-ethyl)-phenol]","scMET protection, time points after dosing",[4]; 300 mg/kg dose,at 0.5 h only
same,responders at 30 mg/kg,[4]; 0.5 h,0%
same,responders at 30 mg/kg,[4]; 4 h,0%
same,responders at 100 mg/kg,[4]; 0.5 h,0%
same,responders at 100 mg/kg,[4]; 4 h,0%
same,responders at 300 mg/kg,[4]; 0.5 h,100%
same,responders at 300 mg/kg,[4]; 4 h,0%
same,"Toxicity, animals/number of animals tested","rotorod test; dose 100 mg/kg ip, 0.25 h",0/2
same,"Toxicity, animals/number of animals tested","rotorod test; dose 100 mg/kg ip, 0.5 h",0/8
same,"Toxicity, animals/number of animals tested","rotorod test; dose 100 mg/kg ip, 1 h",0/3
same,"Toxicity, animals/number of animals tested","rotorod test; dose 100 mg/kg ip, 2 h",0/3
same,"Toxicity, animals/number of animals tested","rotorod test; dose 100 mg/kg ip, 4 h",0/4
same,"Toxicity, animals/number of animals tested","rotorod test; dose 100 mg/kg ip, 6 h",0/3
same,"Toxicity, animals/number of animals tested","rotorod test; dose 30 ip, 0.5 h",0/4
same,"Toxicity, animals/number of animals tested","rotorod test; dose 30 ip, 4 h",0/2
same,"Toxicity, animals/number of animals tested","rotorod test; dose 300 ip, 0.5 h",3/4
same,"Toxicity, animals/number of animals tested","rotorod test; dose 300 ip, 4 h",0/2
same,MES protection,[5]; 300 mg/kg dose,some protection
same,"MES protection, time points after dosing",[5]; 300 mg/kg dose,protection at both 0.5 and 4 h
same,responders at 30 mg/kg,[5]; 0.25 h,0%
same,responders at 30 mg/kg,[5]; 0.5 h,0%
same,responders at 30 mg/kg,[5]; 1 h,0%
same,responders at 30 mg/kg,[5]; 2 h,0%
same,responders at 30 mg/kg,[5]; 4 h,0%
same,responders at 30 mg/kg,[5]; 6 h,0%
same,responders at 100 mg/kg,[5]; 0.5 h,0%
same,responders at 100 mg/kg,[5]; 4 h,0%
same,responders at 300 mg/kg,[5]; 0.5 h,100%
same,responders at 300 mg/kg,[5]; 4 h,100%
same,antiseizure activity in the 6 Hz model,6 Hz (32 mA) model [6],not an active compound
CC(C)c1cc(C(O)C(F)(F)F)cc(Br)c1O (stereo not drawn) [compound 10],analgesic properties,[7],analgesic properties
